These results are taken from paper doi:10.1101/454710v1 (biorxiv, 2018).

Test in all cases: whole-cell patch clamp
Holding throughout (assay type): cell-based
What all share (settings): agonist; pH 7.4

Assay [1] relates to homomeric α2 GlyR.
For assay [2], the system named is heteromeric α3β GlyR.
Assay [3] relates to heteromeric α2β GlyR.
In assay [4] the test system is homomeric α3 GlyR.

In the case of `NCC(=O)O` [glycine], the EC50 in assay [1] was determined as 99 µM; in assay [2] it was 395 µM; in assay [3] it was 91 µM; in assay [4], 166 µM.

As usually defined, the EC50 is the concentration that produces a half-maximal response. The low end stands for a more potent agent, the high end for a less potent agent.
